Measured values from patent US20130023469A1, “LEPTIN FOR USE IN INCREASING LIVER REGENERATION” (Hadasit Medical Research Services & Development Ltd., priority 2009, published 2013).
Values joined by “and” are separate entries in the source; they are usually repeats but may differ in a detail not shown here. Identical values can stand only once. “Also recorded” adds a separate entry of the source.

Key:
hepatocytes [1] = details: previous studies; cited from earlier work
hepatocytes [2] = experiment: Hepatocyte cell size (E-cadherin staining) after partial hepatectomy; type: in vivo, mice
Protocol: (§1) Animal studies and tissue preparation. All animal experiments were performed in accordance with the guidelines of the Institutional Committee for the Use of Animals for Research (IACUC). Mice aged 18 months or older (‘old’ mice) were either purchased from the National Institute of Aging and from Charles River Laboratories or maintained up to the required age in the Specific Pathogen Free (SPF) animal facility at our institution. Mice aged 10-12 months (‘aged’ mice) and 8-week-old ob/ob mice were purchased from Harlan Laboratories. The genetic background of all mice was c57 Black. Pregnancy in ob/ob mice was induced as described previously (Malik et al., 2001). […] Progesterone levels were measured to verify pseudopregnancy induction (Shiotani et al., 1993). […] For measurement of serum prothrombin time, sodium citrate (0.105 M) was added immediately to the blood sample at a ratio of 1:10 (v/v), and values were recorded with a Beckman Coulter ACL 9000 Coagulation Analyzer according to the manufacturer's instructions. […]
Measurement of cell size. […] The numbers of pixels in 100-300 individual hepatocytes for each mouse were scored with ImageJ (NIH) by an observer who was blinded to the treatment group. […] Mean hepatocyte volume was calculated by dividing the hepatocyte volume by the number of hepatocytes. […]

hepatocytes [3] = experiment: BrdU incorporation into hepatocytes (proliferation index) after two-thirds partial hepatectomy; type: in vivo, mice
Protocol: Animal studies and tissue preparation. All animal experiments were performed in accordance with the guidelines of the Institutional Committee for the Use of Animals for Research (IACUC). Mice aged 18 months or older (‘old’ mice) were either purchased from the National Institute of Aging and from Charles River Laboratories or maintained up to the required age in the Specific Pathogen Free (SPF) animal facility at our institution. Mice aged 10-12 months (‘aged’ mice) and 8-week-old ob/ob mice were purchased from Harlan Laboratories. The genetic background of all mice was c57 Black. Pregnancy in ob/ob mice was induced as described previously (Malik et al., 2001). Pseudopregnancy was induced by mating females with vasectomized males and observing for the presence of vaginal plugs. Progesterone levels were measured to verify pseudopregnancy induction (Shiotani et al., 1993). For rapamycin treatment, mice were injected intraperitoneally (i.p.) for 3 consecutive days with rapamycin (0.2 mg/kg body weight diluted in DMSO; LC Laboratories), starting 3 h before the hepatectomy. For PTEN inhibition, bpV(phen) (3.3 μg/g body weight diluted in normal saline; Alexis Biochemicals) was administered i.p. on the day before hepatectomy and once a day for 3 days thereafter. BrdU (100 μl/10 g body weight; Amersham) was injected i.p. at the indicated times before the mice were killed. When indicated, BrdU (#B5002; Sigma) was added to the drinking water (0.8 mg/ml). The mice were allowed to drink ad libitum. For all experiments mice were killed by cervical dislocation. In some cases, a liver sample was removed and ‘snap-frozen’ for protein and RNA analyses. Livers were removed, weighed, photographed, and fixed in formalin overnight, and the next day the entire liver was embedded in paraffin. For measurement of serum prothrombin time, sodium citrate (0.105 M) was added immediately to the blood sample at a ratio of 1:10 (v/v), and values were recorded with a Beckman Coulter ACL 9000 Coagulation Analyzer according to the manufacturer's instructions. For ⅔ partial hepatectomy, virgin or pregnant mice (16-18 days post-coitum unless otherwise specified) were anesthetized, and the median and left lateral lobes of the liver were removed, as described (Ben Moshe et al., 2007).
Proliferation index. The percentage of BrdU-positive hepatocyte nuclei was assessed using the Kisight module of the Ariol SL 50® automated scanning microscope and image analysis system, according to the manufacturer's instructions. The same gating parameters were used for all sections. Ten fields in each liver were scored and the average percentage was calculated.
Immunohistochemistry and immunofluorescence. […]

[4] = test system: old mice after partial hepatectomy; experiment: Post-hepatectomy blood coagulation (prothrombin time) and locomotor activity tests; type: in vivo; details: female mice aged 18-24 mo, compared with nontreated old mice
Protocol: (§2) Animal studies and tissue preparation. All animal experiments were performed in accordance with the guidelines of the Institutional Committee for the Use of Animals for Research (IACUC). Mice aged 18 months or older (‘old’ mice) were either purchased from the National Institute of Aging and from Charles River Laboratories or maintained up to the required age in the Specific Pathogen Free (SPF) animal facility at our institution. Mice aged 10-12 months (‘aged’ mice) and 8-week-old ob/ob mice were purchased from Harlan Laboratories. The genetic background of all mice was c57 Black. Pregnancy in ob/ob mice was induced as described previously (Malik et al., 2001). Pseudopregnancy was induced by mating females with vasectomized males and observing for the presence of vaginal plugs. Progesterone levels were measured to verify pseudopregnancy induction (Shiotani et al., 1993). […] For measurement of serum prothrombin time, sodium citrate (0.105 M) was added immediately to the blood sample at a ratio of 1:10 (v/v), and values were recorded with a Beckman Coulter ACL 9000 Coagulation Analyzer according to the manufacturer's instructions. […]
Locomotor activity. This was monitored using a photocell cage, 43.2 cm×43.2 cm (Med Associates), with 16 beam I/R arrays located along each wall of the box. […]

[5] = test system: old mice after partial hepatectomy; experiment: Post-hepatectomy mortality in old mice; type: in vivo; details: female mice aged 18-24 mo, control four out of nine, P=0.014
Protocol: as §2, with “1993). For rapamycin treatment, mice were injected intraperitoneally (i.p.) for 3 consecutive days with rapamycin (0.2 mg/kg body weight diluted in DMSO; LC Laboratories), starting 3 h before the hepatectomy.” for “1993).”

Akt/mTORC1 pathway = experiment: Western blot / phospho-4E-BP analysis of liver for Akt/mTORC1 pathway activation; type: in vivo, mice
Protocol: as §1
Western blot analysis. […] Tissue lysates containing 100 μg protein were separated by 12% SDS-PAGE, and assessed by Western blot analysis by means of sequential probing with the relevant primary antibody and a relevant anti-IgG conjugated to horseradish peroxidase (Jackson ImmunoResearch).

[6] = test system: H35 cells (rat hepatoma cell line); experiment: Western blot of H35 cells treated with leptin, IL6 or both; type: cell-based; details: starvation for 16 h then treated
Protocol: Western blot analyses of hepatoma rat cells, that were under starvation for 16 h and then treated with: bpV(phen), leptin, IL-6 and combination of IL-6 and Leptin.
Leptin is an adipokine of the IL6 family and its receptor signals through both the JAK/STAT and the Akt/mTORC1 pathways. Its origin is placental in humans, maternal in mice, and in late pregnancy it is increased by up to 25-fold. To test whether pregnancy-induced leptin accumulation contributes to the proliferation-to-hypertrophy switch in pregnancy we used ob/ob mice, which carry a loss-of-function mutation in leptin. Indeed, hepatocyte proliferation was not decreased in pregnant versus non-pregnant ob/ob mice (FIG. 13A). Moreover, liver regeneration in pregnant ob/ob mice was not accompanied by hepatocyte hypertrophy (FIGS. 13B-D). These findings confirmed that maternal leptin is necessary for the pregnancy-induced module switch. Furthermore, the phosphorylation state of components of the Akt/mTORC1 pathway was not increased in pregnant relative to nonpregnant mice (FIG. 13E FIG. 4e). […] Cells were harvested and protein extracts were analyzed by Western blot analysis. […] To test whether leptin is sufficient to activate the hypertrophy module, we administered leptin or vehicle to nonpregnant female mice prior to and after hepatectomy (FIG. 15A) and assessed liver growth and proliferation.

liver regeneration = experiment: Prolactin administration to nonpregnant mice, liver regeneration; type: in vivo; details: data not shown
Source text: In searching for the upstream signals mediating the pregnancy-induced switch, we identified four candidate hormones that are elevated in pregnancy and can activate the Akt/mTORC1 pathway: growth hormone (and its variants), prolactin, leptin and estrogen.

[7] = young nonpregnant mice treated with bpV(phen), after partial hepatectomy

Question: With “growth hormone: hormone elevated in pregnancy; not tested by the applicant, literature result only” as the molecule, how does the “hepatocyte proliferation after partial hepatectomy” value (hepatocytes [1]) read?
Answer: increase hepatocyte proliferation after partial hepatectomy

Question: What does the source list for `CO[C@H]1C[C@@H]2CC[C@@H](C)[C@@](O)(O2)C(=O)C(=O)N2CCCC[C@H]2C(=O)O[C@H]([C@H](C)C[C@@H]2CC[C@@H](O)[C@H](OC)C2)CC(=O)[C@H](C)/C=C(\C)[C@@H](O)[C@@H](OC)C(=O)[C@H](C)C[C@H](C)/C=C/C=C/C=C/1C` [rapamycin]?
Answer: cell size (hepatocytes [2]; aged pregnant mice, 2 d after partial hepatectomy, rapamycin-treated, vehicle 527±2): 422±1 μ^2; hepatocyte proliferation rate (BrdU-labeled) (hepatocytes [3]; aged pregnant mice, 2 d after partial hepatectomy, rapamycin 0.2 mg/kg i.p. for 3 days, vehicle 2%±1%): 25±8% and 25%±8%

Question: With `O.O.O.OO.OO.[K+].[OH-].[V].c1cnc2c(c1)ccc1cccnc12` [bpV(phen), bisperoxovanadium 1,10-phenanthroline] as the molecule, how does the “recovery from partial hepatectomy (blood coagulation and locomotor activity)” value [4] read?
Answer: significant improvement in recovery from partial hepatectomy

Question: And the “growth in the mean cross-sectional area” value (hepatocytes [2]; [7])?
Answer: 115%

Question: And the mortality rate [5]?
Answer: zero out of nine

Question: And the “proliferation index” value (hepatocytes [3]; [7])?
Answer: low proliferation index

Question: And the BrdU-labeled hepatocytes (hepatocytes [3]; young nonpregnant mice, 4 d after partial hepatectomy, continuous BrdU, bpV(phen) 3.3 μg/g i.p., untreated 92±1%)?
Answer: 8±2%

Question: And the “activation of Akt/mTORC1 pathway (phosphorylated Akt and 4E-BP1, Western blot)” value (Akt/mTORC1 pathway; liver extracts of young mice treated with bpV(phen))?
Answer: activates the Akt/mTORC1 pathway

Question: For Estrogen, which “hepatocyte proliferation after partial hepatectomy” value (hepatocytes [1]) is on record?
Answer: increase hepatocyte proliferation after partial hepatectomy

B1: leptin: adipokine of the IL6 family; mouse leptin was injected in mice (protein, UniProt P41160 22-167, looked up)
Leptin: VPIQKVQDDTKTLIKTIVTRINDISHTQSVSAKQRVTGLDFIPGLHPILSLSKMDQTLAVYQQVLTSLPSQNVLQIANDLENLRDLLHLLAFSKSCSLPQTSGLQKPESLDGVLEASLYSTEVVALSRLQGSLQDILQQLDVSPEC
Question: Which “hepatocyte proliferation (BrdU-positive cells)” value (hepatocytes [3]; nonpregnant female mice, leptin S.C. 1 mg/kg from two days before to two days after partial hepatectomy) does the source give for B1 here?
Answer: marked reduction in hepatocyte proliferation

Question: And the “hepatocyte proliferation after partial hepatectomy” value (hepatocytes [1])?
Answer: attenuates hepatocyte proliferation after partial hepatectomy

Question: What about the “Akt pathway activation (phosphorylation of 4E-BP)” value (Akt/mTORC1 pathway; nonpregnant female mice, leptin S.C. 1 mg/kg, two days after partial hepatectomy) of the same molecule?
Answer: activating the Akt pathway

Question: What about the “Akt pathway activation (phosphorylation of S6 kinase and 4E-BP)” value [6] of the same molecule?
Answer: activates the Akt pathway; also recorded: phosphorylation of both S6 kinase and 4E-BP

B2: prolactin: hormone elevated in pregnancy that can activate the Akt/mTORC1 pathway (protein, UniProt P01236 29-227, looked up)
Prolactin: LPICPGGAARCQVTLRDLFDRAVVLSHYIHNLSSEMFSEFDKRYTHGRGFITKAINSCHTSSLATPEDKEQAQQMNQKDFLSLIVSILRSWNEPLYHLVTEVRGMQEAPEAILSKAVEIEEQTKRLLEGMELIVSQVHPETKENEIYPVWSGLPSLQMADEESRLSAYYNLLHCLRRDSHKIDNYLKLLKCRIIHNNNC
Question: For B2, which “effect on liver regeneration” value (liver regeneration) is on record?
Answer: no effect on liver regeneration
